The values that follow are results of earlier work, collected in US20080152724A1, “TREATMENT OF PER[…] AN […] RELEASE IODINE” (priority 2006, published 2008).

SMILES strings stand for the structures.

The subject of this data set is test strains. Particulars: all of the test strains; after 30 seconds of exposure.

Consider `N=C(NCCCCCCNC(=N)NC(=N)Nc1ccc(Cl)cc1)NC(=N)Nc1ccc(Cl)cc1.O=C(O)[C@H](O)[C@@H](O)[C@H](O)[C@H](O)CO.O=C(O)[C@H](O)[C@@H](O)[C@H](O)[C@H](O)CO` [chlorhexidine gluconate], for which the bactericidal activity entry was “residual bacteria were observed in most species”.
